No end group written: not given here.
Assays:
[1] = tested on: NOD mice; settings: subcutaneous administration; cited from earlier work
[2] = tested on: BB-DP rats; experiment: Diabetes incidence and onset after neonatal oral DiaPep277 with conventional or HC diet; format: in vivo, rat
Procedure: Experimental set-up: Group-housed BB-DP rats (breeding colony, Groningen, the Netherlands) were orally inoculated once per day with either placebo (aqua dist.) or Diapep277 at days 4, 5, 6 and 7 of life (black box in FIG. 1). Animals were treated in compliance with the principles of laboratory care (NIH publication no. 85-23, revised 1985) and the Dutch law on experimental animal care. Inoculation was done via a silicon-tube swallowed by the neonate and fluid was inoculated directly into the stomach. DiaPep277 was supplied by Peptor Ltd., Rehovot, Israel. It is an analog of the native 437-460 sequence of human hsp60, in which the existing cystein residues at positions 442 and 447 were replaced by valine, for better chemical stabilization. Per inoculation 300 μg/rat of Diapep277 in a volume of 300 μl was administered. At the age of 21 days (gray box in FIG. 1) rats were weaned either on a conventional, cereal-based diet (Hope Farms, rodent diet no. Rmh-B2181, Woerden, Netherlands) or on HC-diet, a modification of the AIN-93G diet containing 20% hydrolyzed casein (Pancase S; Redstar Bioproducts, Tara, Canada) as the source of aminoacids, 53% corn starch, 12% sucrose, 5% corn oil, 5% cellulose-type fiber (Solka-Floc; Teklad, Madison, Wis.) (Visser J. et al., 2003, Metabolism 52, 333-337, Scott F W et al., 1997, Diabetes 46, 589-598). In this study both sexes were used. In our colony 80% to 90% of the BB-DP rats spontaneously develop diabetes before the age of 130 days, with no gender differences. Body weights were measured three times per week. […] The degree of islet infiltration was measured using a Zeiss microscope and was rated as previously described (Visser J. et al., 2003, Metabolism 52, 333-337) with the addition of score 5 which is developed in our lab, to control for completely destroyed islets in severe insulitis. Per pancreas section, an average histological insulitis score was calculated by adding up the score of each islet and dividing it by the total number of islets counted. […]

[3] = tested on: spleen-derived lymphocytes; settings: splenocytes from DiaPep277-treated rats; stimulation 5 or 25 microgram/ml; planned second study
Procedure: In this study, the preventive dose or control (PBS) is administered on days 4-14 to large groups of rats (30 per treatment arm), and followed up for signs of diabetes, as above. In addition, five rats of each group are sacrificed at 2 weeks, 1, 2, 3, 4 and 5 months of age, and at each time point the spleen is removed to determine the cytokine profile. Determination of the cytokine profile is performed by subjecting the spleen-derived lymphocytes to the following stimuli: None; Concanavalin A (1 microgram/ml); DiaPep277 (5 microgram/ml); DiaPep277 (25 microgram/ml).

Sequence	development of diabetes (in words) [1]	diabetes incidence ([2]; BB-DP rats, oral 300 μg/rat/day at days 4-7 of life, diet from weaning (day 21), followed to 140 days) [%]	improved chance of not developing diabetes ([2]; all animals receiving DiaPep277, endpoint analysis, χ^2) [fold]	protection against diabetes (in words) ([2]; neonatal oral administration alone, conventional diet)	cytokine response of splenocytes on DiaPep277 stimulation (in words) [3]
VLGGGCALLRCIPALDSLTPANED (cysteine pairing not given here) [p277, residues 437-460 of human Hsp60]	prevented the development of diabetes				
VLGGGVALLRVIPALDSLTPANED [DiaPep277]		69	2.2	did not lead to significant protection	focused Th2/Treg response

From patent US8828922B2, “HSP therapy in conjunction with a low antigenicity diet” (Andromeda Biotech Ltd., priority 2004, dated 2014)
